The target of test [1] is T1, Phosphodiesterase; PDE3 & PDE4 (Homo sapiens) (UniProt P27815+Q14432+Q08499+Q07343+Q13370+Q08493). The test can be described thus: Inhibition of cAMP Phosphodiesterase enzyme. It is filed as protein assay.
The target of test [2] is Beta-1 adrenergic receptor (Homo sapiens) (UniProt P08588).
Description: Positive inotropic effects by direct or indirect beta-1 adrenergic receptor activation.
Test [3] addresses T1, Phosphodiesterase; PDE3 & PDE4 (Homo sapiens). Nature of the test: Compound was evaluated for its inotropic activity by the inhibition of cAMP Phosphodiesterase enzyme. The format is protein assay.
Test [4] addresses Beta-1 adrenergic receptor (Homo sapiens) (UniProt P08588). Nature of the test: Compound was tested for its inotropic effect by activation of beta-1 adrenergic receptor directly or indirectly; activity values are 70,71.
The nature of test [5]: Compound was evaluated for its inotropic activity by its ability to increase Myofibrillar Ca++ sensitivity. The format is functional.
Test [6] has as its target Beta-1 adrenergic receptor (Homo sapiens) (UniProt P08588). The test can be described thus: Compound was tested for its inotropic effect by activation of beta-1 adrenergic receptor directly or indirectly; activity values are 73,75.

Molecules are shown by their SMILES. Where “and” joins values, the source holds several entries; their conditions need not be identical. Identical values can stand only once.

Beta-1 adrenergic receptor (Homo sapiens), sequence (P08588 whole entry, looked up): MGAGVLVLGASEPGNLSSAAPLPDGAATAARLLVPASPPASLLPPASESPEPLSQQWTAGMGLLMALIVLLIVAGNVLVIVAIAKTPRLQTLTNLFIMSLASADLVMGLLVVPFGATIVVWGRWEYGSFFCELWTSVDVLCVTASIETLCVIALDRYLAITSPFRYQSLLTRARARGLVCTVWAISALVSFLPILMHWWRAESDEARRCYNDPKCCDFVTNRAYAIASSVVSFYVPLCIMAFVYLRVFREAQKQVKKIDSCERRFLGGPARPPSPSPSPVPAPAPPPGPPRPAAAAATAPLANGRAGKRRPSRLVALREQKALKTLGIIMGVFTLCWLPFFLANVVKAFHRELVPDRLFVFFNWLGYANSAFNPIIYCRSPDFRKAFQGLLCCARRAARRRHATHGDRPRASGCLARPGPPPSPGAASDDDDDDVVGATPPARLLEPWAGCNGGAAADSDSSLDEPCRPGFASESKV

Consider `O=C1CCC(c2ccc3c(c2)NC(=O)CC3)=NN1`, for which the PDE inhibition in test [1] turned out to be 83.

As to `Nc1cc(-c2ccncc2)c[nH]c1=O`, the Inotropic effect in test [2] came out at 57. In addition, in test [3], the PDE inhibition was 57 and 56 and 24.

Take `OC(CNCCC1c2ccccc2Oc2ccccc21)COc1ccccc1` (stereo not given): the Inotropic effect in test [2] was 45 and 44.

In test [2], `Oc1ccc(CCNCCCCCCNCCc2ccccc2)cc1O` returned an Inotropic effect of 36.

For `CCc1[nH]c(=O)[nH]c1C(=O)c1ccncc1`, the PDE inhibition in test [1] came out at 68. For the same compound, the Inotropic effect in test [4] came to 71.

In test [1], `O=C1CCC(c2ccc(-n3ccnc3)cc2)=NN1` showed a PDE inhibition of 76. Moreover, in test [2], the Inotropic effect came out at 78.

Consider `CC1CC(O)=NN=C1c1ccc(-n2ccnc2)cc1` (stereo not given), for which the PDE inhibition in test [1] amounted to 76.

As to `Cc1nc(=O)c(C#N)c(NCc2cccnc2)[nH]1`, the Inotropic effect in test [2] turned out to be 66. In addition, the PDE inhibition in test [3] is 64 and 65.

Compound `CNCCc1ccc(OC(=O)C(C)C)c(OC(=O)C(C)C)c1` yielded an Inotropic effect in test [2] of 38.

For `COc1ccc2[nH]c(=O)nc(C)c2c1OC`, in test [1], the PDE inhibition stood at 91.

As for `CCNC(=O)OC1CCN(c2nncc3cc(OC)c(OC)cc23)CC1`, in test [1], the PDE inhibition turned out to be 86. The Inotropic effect in test [2] is 86.

Turning to `CC(=O)Nc1ccc(-c2cnc(O)cn2)cc1`, the PDE inhibition in test [1] was determined as 63.

`CCc1nc(O)ncc1-c1ccc(O)cc1` came in with a PDE inhibition in test [1] of 67. The Inotropic effect in test [2] was 67.

`CC(CCc1ccc(O)cc1)NCCc1ccc(O)c(O)c1` (stereo not given): the Inotropic effect in test [2] worked out at 26.

The compound `CCCCNC(=O)NC1CCN(c2ncnc3cc(OC)c(OC)cc23)CC1` gave a PDE inhibition in test [1] of 84. Moreover, the Inotropic effect in test [2] came out at 85.

On to `CC(C)NC[C@H](O)COc1ccc(O)cc1`, for which, in test [2], the Inotropic effect was 35 and 34.

`Cc1nc(O)c(N)cc1-c1ccccc1` showed a PDE inhibition in test [1] of 62. The compound further yielded a Mechanistic reference in test [5] of 62.

For `COc1ccc(C(=O)N2CCN(c3ccc4c(c3)CCC(=O)N4)CC2)cc1OC`, the PDE inhibition in test [1] came to 87.

In the case of `CSc1ccc(C(=O)c2[nH]c(=O)[nH]c2C)cc1`, the Inotropic effect in test [6] amounted to 75. This compound displayed a PDE inhibition in test [1] of 72.

Take `COc1ccc(-c2nc3cc(C4=NNC(=O)CC4C)ccc3[nH]2)cc1` (stereo not given): in test [2], the Inotropic effect came to 82. For the same compound, the PDE inhibition in test [3] is 81 and 80.

The compound `Cc1[nH]c(=O)c(C#N)cc1-c1ccncc1` showed a PDE inhibition in test [1] of 58.

In the case of `CN(C(=O)CCCOc1ccc2c(c1)CN1CC(=O)NC1=N2)C1CCCCC1`, in test [1], the PDE inhibition was found to be 90.

In test [1], `C[C@@H]1C(=O)NC2=Nc3cccc(Cl)c3CN21` came in with a PDE inhibition of 88. Also, in test [2], the Inotropic effect was found to be 89.

For `C[C@H](CCc1ccc(O)cc1)NC[C@H](O)c1ccc(O)cc1`, in test [2], the Inotropic effect came to 39.

The record behind these values is ChEMBL document CHEMBL1123575, “In search of the digitalis replacement” (J Med Chem, 1987).
